Active and inactive are the calls of the source.
Tests used:
[1] = Counterscreen for inhibitors of Trypanosoma brucei methionyl tRNA synthetase (MetRS): Luminescence-based cell-based high throughput dose response assay to identify compounds that are cytotoxic to Jurkat human T lymphocyte cells.; type: functional
[2] = target: T1, Methionyl-tRNA synthetase, putative (Trypanosoma brucei brucei, UniProt Q38C91); type: functional, Trypanosoma brucei brucei strain 927/4 GUTat10.1
T1 sequence (Q38C91 whole entry): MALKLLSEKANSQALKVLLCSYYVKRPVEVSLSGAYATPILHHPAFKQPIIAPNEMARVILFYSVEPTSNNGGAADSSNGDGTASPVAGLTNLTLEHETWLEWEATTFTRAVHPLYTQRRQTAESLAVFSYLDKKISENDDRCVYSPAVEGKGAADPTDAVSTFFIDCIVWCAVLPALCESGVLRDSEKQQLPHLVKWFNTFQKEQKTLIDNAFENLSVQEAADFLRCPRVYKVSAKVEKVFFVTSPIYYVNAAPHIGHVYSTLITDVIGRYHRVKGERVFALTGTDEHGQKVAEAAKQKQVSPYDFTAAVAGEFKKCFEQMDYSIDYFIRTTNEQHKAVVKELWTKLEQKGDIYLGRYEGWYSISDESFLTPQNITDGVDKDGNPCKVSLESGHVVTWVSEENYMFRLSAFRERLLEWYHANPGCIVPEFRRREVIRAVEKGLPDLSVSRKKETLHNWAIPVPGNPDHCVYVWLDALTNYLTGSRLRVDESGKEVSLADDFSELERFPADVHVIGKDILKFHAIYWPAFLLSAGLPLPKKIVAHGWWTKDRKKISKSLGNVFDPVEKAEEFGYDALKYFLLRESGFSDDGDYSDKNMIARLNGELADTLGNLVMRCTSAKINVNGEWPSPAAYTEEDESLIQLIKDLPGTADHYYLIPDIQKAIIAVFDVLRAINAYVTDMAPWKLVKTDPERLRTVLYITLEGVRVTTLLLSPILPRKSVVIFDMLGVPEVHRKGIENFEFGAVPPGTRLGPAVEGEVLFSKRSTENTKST

[3] = target: T1, Methionyl-tRNA synthetase, putative; type: functional, Trypanosoma brucei brucei strain 927/4 GUTat10.1; remark: listed apart in the source
[4] = target: Major prion protein (Homo sapiens, UniProt P04156); type: functional, cell-based
[5] = cells
[6] = viability loss in HEK293 cells – cell-based, plate reader, cherry-picked samples, cytotoxicity control, dose response (AID 743446); type: functional
[7] = blockade of melanocortin 4 receptor signaling – cell-based, plate reader, cherry pick, counter-screen for LGR2 antagonist project, dose response (AID 743444); type: functional;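 note: transfected HEK 293 cells stimulated with alpha-MSH peptide; potency of inhibitors of the alpha-MSH evoked signal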
[8] = blockers of bursicon-stimulated LGR2 cAMP reporter – cell-based, HEK293, CRE-luciferase reporter, cherry pick, set 2, dose response (AID 743343); type: functional;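 note: transfected cells were stimulated with diluted bursicon conditioned medium after compound addition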
[9] = toxicity toward HepG2 liver cells – cell-based, plate reader, cherry-pick, antagonist series, cytotoxicity control, dose response (AID 743416); type: functional
[10] = A549 cell cytotoxicity, dose response, cytotoxicity control, plate reader, cherry-pick, antagonist series (AID 743412); type: functional, cell-based
[11] = cells; type: functional, cell-based; conditions: HEK-CNG
[12] = system: HEK293; experiment: cells; type: functional, cell-based; conditions: Homo sapiens
[13] = target: Galanin receptor type 3 (Homo sapiens, UniProt O60755); experiment: Fluorescence-based cell-based primary high throughput dose response assay to identify antagonists of the Galanin Receptor 3 (GalR3).; type: functional
[14] = system: HEK293; experiment: inhibition of NOD1-driven NF-kB reporter – cell-based, luminescence, uHTS, primary screen (AID 1578); type: functional; conditions: Homo sapiens
[15] = system: HEK293; experiment: NOD2 signaling inhibitors in MDP-stimulated cells, cell-based, uHTS, luminescence (AID 2001); type: functional; conditions: Homo sapiens
[16] = system: HEK293; experiment: cells; type: functional, cell-based; conditions: Homo sapiens; remark: listed apart in the source
[17] = target: Mu-type opioid receptor (Homo sapiens, UniProt P35372); type: functional, cell-based;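 note: U2OS cells with beta-arrestin recruitment to OPRM1 by beta-gal complementation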
[18] = target: 5-hydroxytryptamine receptor 2A (Mus musculus, UniProt P35363); type: functional, cell-based;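 note: CHO-K1 cells with tagged receptor and beta-arrestin; agonist potency measured as compound-induced activation of the receptor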
[19] = target: Paired box protein Pax-8 (Homo sapiens, UniProt Q06710); experiment: PAX8 transcriptional activity inhibition in RMG-I – RMG-I cells, luciferase, cherry-pick, dose response (AID 687027); type: functional, cell-based;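 note: luciferase reporter driven by Pax8 target thyroperoxidase promoter measured by SteadyGlo luminescence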
[20] = target: T2, Small ubiquitin-related modifier 1 (Homo sapiens, UniProt P63165); experiment: SUMO1 protein-protein binding blockers, potency – biochemical, FRET, dose response (AID 624383); type: functional; conditions: read-out: IC50_Mean
[21] = target: T2, Small ubiquitin-related modifier 1; experiment: SUMO1 protein interaction blockers, potency – biochemical, fluorescence polarization, uHTS hits, dose response (AID 624382); type: functional; conditions: read-out: IC50_Mean
[22] = general cell-killing toxicity readout – plate reader, dry powder samples, cytotoxicity control for PAX8 inhibitor project, dose response (AID 743021); type: functional, cell-based
[23] = reduced cellular PGC1a acetyl-lysine signal – cell-based, cherry-picked samples, dose response (AID 720514); type: functional;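 note: potency may reflect raised or lowered acetylation signal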
[24] = toxicity to human hepatoma HepG2 cells – cell-based, cherry-picked samples, cytotoxicity control, dose response (AID 1159577); type: functional
[25] = IGROV1 cell killing – plate reader, dry powder samples, PAX8 inhibitor project, dose response (AID 743043); type: functional, cell-based; conditions: IGROV-1
[26] = P. falciparum Dd2 growth inhibitors, dose response, SYBR Green, cherry-picked samples (AID 1159567); type: functional, cell-based
[27] = OVCAR8 cell viability loss – plate reader, dry powder samples, PAX8 project, dose response (AID 743197); type: functional, cell-based; conditions: OVCAR-8
[28] = system: HeLa; experiment: viability loss in HeLa cells – cell-based, ATP luminescence, cherry-pick samples, cytotoxicity control, dose response (AID 687004); type: functional; conditions: Homo sapiens
[29] = cells; type: functional, cell-based
[30] = target: T3, Nuclear receptor subfamily 0 group B member 1 (Homo sapiens, UniProt P51843); type: functional, cell-based;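 note: HEK293T cells transfected with SF-1 and DAX-1 plus StAR promoter luciferase reporter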
T3 sequence (P51843 whole entry): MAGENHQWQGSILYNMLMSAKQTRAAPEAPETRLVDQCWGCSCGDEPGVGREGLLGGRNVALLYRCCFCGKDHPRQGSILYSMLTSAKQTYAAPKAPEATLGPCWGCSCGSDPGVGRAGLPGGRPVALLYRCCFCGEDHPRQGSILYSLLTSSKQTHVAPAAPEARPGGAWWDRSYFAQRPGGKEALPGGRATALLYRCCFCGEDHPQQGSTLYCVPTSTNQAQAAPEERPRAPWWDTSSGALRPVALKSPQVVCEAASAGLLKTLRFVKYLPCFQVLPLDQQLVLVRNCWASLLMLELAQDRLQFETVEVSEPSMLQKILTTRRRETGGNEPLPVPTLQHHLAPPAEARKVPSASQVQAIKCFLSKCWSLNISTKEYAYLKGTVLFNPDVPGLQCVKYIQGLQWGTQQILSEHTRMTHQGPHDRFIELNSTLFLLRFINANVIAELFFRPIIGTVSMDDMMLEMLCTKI

[31] = fluconazole-exposed Candida albicans growth modulators – fluorescence, retest, confirmation (AID 2467); type: functional, cell-based
[32] = NIH-3T3 fibroblast cytotoxicity, dose response, cytotoxicity control, cell-based, fluorescence, Alamar Blue, secondary assay (AID 2327); type: functional;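 note: NIH-3T3 mouse fibroblasts cultured with fluconazole at 8 µg/mL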
[33] = target: Matrix metalloproteinase-14 (Homo sapiens, UniProt P50281); experiment: Dose Response confirmation of uHTS hits for a small molecule inhibitors of MT1-MMP activation in a fluorescence assay set 1.; type: functional

Cc1nnc(NC(=O)CSc2n[nH]c3c4cc(Br)ccc4nc-3n2)s1
IC50 [1]: 83.3 µM (inactive) | IC50 [2]: 1.36 µM (active) | IC50 [3]: 3.87 µM (active)

CCC(Sc1ccc2nnc(-c3ccc(F)cc3)n2n1)C(=O)O (stereo not given)
IC50 [4]: 13 µM (inactive) | IC50 [5]: > 138 µM (inactive)

COc1cccc2c1C(=O)O/C2=C/c1ccc2c(c1)OCO2
AC50 [6]: > 52 µM (inactive) | AC50 [7]: 2.69 µM (active) | AC50 [8]: 2.1 µM (active) | AC50 [9]: > 52 µM (inactive) | AC50 [10]: > 52 µM (inactive)

Cc1oc(-c2ccc(Cl)cc2)nc1CSCC(=O)NC1CCN(Cc2ccccc2)CC1
EC50 [11]: > 29.9 µM (inactive) | IC50 [12]: 9.78 µM (active) | IC50 [13]: 1.29 µM (active) | EC50 [14]: 2.62 µM (active) | IC50 [15]: 3.08 µM (active) | IC50 [16]: 1.68 µM (active)

Cc1ccc(CCNc2ncnc(Cl)c2N)cc1
EC50 [11]: > 29.9 µM (inactive) | IC50 [13]: 0.626 µM (active)

Cc1ccc(NC(=O)CN2CCN(c3ccccn3)CC2)cc1S(=O)(=O)N(C)C
EC50 [17]: 92.5 µM (inactive) | EC50 [18]: 0.685 µM (active)

O=C(NCc1cc(C(F)(F)F)ccc1Cl)c1cccc2c1C(=O)c1ccc(N3CCC(N4CCCCC4)CC3)cc1S2(=O)=O
AC50 [19]: 11.7 µM (active) | IC50 [20]: 11.1 µM (active) | IC50 [21]: > 66.6 µM (inactive) | AC50 [22]: 19.7 µM (active)

COc1ccc2c3c(n(C)c2c1)[C@H](CO)NCC31CCN(Cc2cc(-c3ccccc3)on2)CC1
AC50 [19]: 7.96 µM (active) | AC50 [23]: 12.9 µM (active) | AC50 [24]: 7.77 µM (active) | AC50 [25]: 25.1 µM (active) | AC50 [26]: 1.64 µM (active) | AC50 [22]: 43 µM (active) | AC50 [27]: 24.1 µM (active)

COc1cccc(-c2ccc3c(c2)[C@H]2[C@H](CCN2C(=O)Cc2ccncc2)[C@H](CO)N3C)c1
AC50 [28]: > 52 µM (inactive)

c1ccc(Nc2nnc(-c3ccc4c(c3)OCO4)o2)cc1
AC50 [6]: 6.3 µM (active) | AC50 [7]: 2.76 µM (active) | IC50 [29]: > 67.5 µM (inactive) | AC50 [8]: 2.58 µM (active) | AC50 [9]: 12.3 µM (active) | IC50 [30]: > 0.0926 µM (active) | AC50 [10]: 10.8 µM (active)

Cc1ccc(SCCC(=O)N/N=C/c2ccccc2O)cc1
EC50 [31]: 4.74 µM (active) | IC50 [1]: 16.1 µM (inactive) | EC50 [32]: > 160 µM (inactive) | IC50 [2]: 4.49 µM (active) | IC50 [3]: 4.39 µM (active)

CN1C(=O)/C(=C2/C=Cc3ccccc3N2CCCS(=O)(=O)O)SC1=S
IC50 [33]: > 80 µM (inactive)

From ChEMBL document CHEMBL1201862, “PubChem BioAssay data set” (2004)
